Reference: ChEMBL document CHEMBL1201862, “PubChem BioAssay data set” (2004)
Activity calls are given as the source filed them.

What was measured:
[1] = target: T1, DNA repair and recombination protein RAD54-like (Homo sapiens, UniProt Q92698); assay: inhibitors of human RAD54 branch migration, confirmation, biochemical, fluorescence, cherry-picked samples, dose series (AID 651657); type: functional
T1 sequence (Q92698 whole entry): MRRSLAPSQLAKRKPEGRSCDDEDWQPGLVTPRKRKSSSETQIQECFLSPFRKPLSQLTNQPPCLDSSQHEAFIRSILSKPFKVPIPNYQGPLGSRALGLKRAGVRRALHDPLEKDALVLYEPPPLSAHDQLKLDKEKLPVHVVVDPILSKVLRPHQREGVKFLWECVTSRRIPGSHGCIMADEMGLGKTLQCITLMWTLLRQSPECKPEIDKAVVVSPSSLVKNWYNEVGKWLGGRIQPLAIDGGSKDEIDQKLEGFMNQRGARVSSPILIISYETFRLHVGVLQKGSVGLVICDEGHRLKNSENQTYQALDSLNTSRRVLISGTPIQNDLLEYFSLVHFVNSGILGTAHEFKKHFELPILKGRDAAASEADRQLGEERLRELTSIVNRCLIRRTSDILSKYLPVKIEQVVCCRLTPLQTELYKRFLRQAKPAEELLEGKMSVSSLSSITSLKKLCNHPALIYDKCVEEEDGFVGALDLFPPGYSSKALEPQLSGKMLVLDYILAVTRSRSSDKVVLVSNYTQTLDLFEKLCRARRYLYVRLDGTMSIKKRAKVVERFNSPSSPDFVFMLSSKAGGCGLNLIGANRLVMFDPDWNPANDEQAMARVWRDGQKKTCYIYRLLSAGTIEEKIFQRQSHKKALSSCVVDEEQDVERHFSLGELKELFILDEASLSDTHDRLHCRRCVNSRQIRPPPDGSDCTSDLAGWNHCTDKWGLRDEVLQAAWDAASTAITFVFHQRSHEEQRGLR

Cytochrome P450 3A4 = Cytochrome P450 3A4 (Homo sapiens, UniProt P08684); conditions: Potency;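 also: confirmatory qHTS run detecting inhibitors and substrates of CYP3A4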
Chain of Cytochrome P450 3A4 (P08684 whole entry): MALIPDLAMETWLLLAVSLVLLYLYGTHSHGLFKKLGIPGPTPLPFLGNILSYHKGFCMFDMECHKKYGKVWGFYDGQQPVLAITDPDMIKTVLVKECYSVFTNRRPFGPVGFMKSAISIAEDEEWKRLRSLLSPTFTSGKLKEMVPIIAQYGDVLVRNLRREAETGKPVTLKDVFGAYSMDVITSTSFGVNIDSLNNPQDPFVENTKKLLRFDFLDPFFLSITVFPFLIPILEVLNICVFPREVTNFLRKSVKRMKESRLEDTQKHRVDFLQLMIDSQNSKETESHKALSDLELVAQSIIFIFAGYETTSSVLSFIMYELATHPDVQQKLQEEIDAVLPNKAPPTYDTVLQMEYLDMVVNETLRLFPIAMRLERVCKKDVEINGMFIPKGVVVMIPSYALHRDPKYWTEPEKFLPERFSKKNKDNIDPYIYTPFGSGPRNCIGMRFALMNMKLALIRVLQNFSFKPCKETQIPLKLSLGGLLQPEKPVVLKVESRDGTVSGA

[2] = target: T2, Sentrin-specific protease 8 (Homo sapiens, UniProt Q96LD8); type: functional
T2 sequence (Q96LD8 whole entry): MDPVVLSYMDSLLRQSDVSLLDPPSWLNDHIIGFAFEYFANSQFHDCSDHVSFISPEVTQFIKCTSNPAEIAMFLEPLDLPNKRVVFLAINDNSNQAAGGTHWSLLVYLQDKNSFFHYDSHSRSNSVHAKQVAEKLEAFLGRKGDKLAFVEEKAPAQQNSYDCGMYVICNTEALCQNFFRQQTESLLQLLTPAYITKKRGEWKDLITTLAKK

[3] = target: T2, Sentrin-specific protease 8; type: functional; remark: listed apart in the source
Protein RecA = target: T3, Protein RecA (Mycobacterium tuberculosis, UniProt P9WHJ3); assay: Fluorescence Cell-Free Homogeneous Dose Retest to Identify Inhibitors of RecA-Intein Splicing Activity. [Related pubchem assays (depositor defined):AID2097, AID2223, AID489010, AID492950]; type: functional
T3 sequence (P9WHJ3 whole entry): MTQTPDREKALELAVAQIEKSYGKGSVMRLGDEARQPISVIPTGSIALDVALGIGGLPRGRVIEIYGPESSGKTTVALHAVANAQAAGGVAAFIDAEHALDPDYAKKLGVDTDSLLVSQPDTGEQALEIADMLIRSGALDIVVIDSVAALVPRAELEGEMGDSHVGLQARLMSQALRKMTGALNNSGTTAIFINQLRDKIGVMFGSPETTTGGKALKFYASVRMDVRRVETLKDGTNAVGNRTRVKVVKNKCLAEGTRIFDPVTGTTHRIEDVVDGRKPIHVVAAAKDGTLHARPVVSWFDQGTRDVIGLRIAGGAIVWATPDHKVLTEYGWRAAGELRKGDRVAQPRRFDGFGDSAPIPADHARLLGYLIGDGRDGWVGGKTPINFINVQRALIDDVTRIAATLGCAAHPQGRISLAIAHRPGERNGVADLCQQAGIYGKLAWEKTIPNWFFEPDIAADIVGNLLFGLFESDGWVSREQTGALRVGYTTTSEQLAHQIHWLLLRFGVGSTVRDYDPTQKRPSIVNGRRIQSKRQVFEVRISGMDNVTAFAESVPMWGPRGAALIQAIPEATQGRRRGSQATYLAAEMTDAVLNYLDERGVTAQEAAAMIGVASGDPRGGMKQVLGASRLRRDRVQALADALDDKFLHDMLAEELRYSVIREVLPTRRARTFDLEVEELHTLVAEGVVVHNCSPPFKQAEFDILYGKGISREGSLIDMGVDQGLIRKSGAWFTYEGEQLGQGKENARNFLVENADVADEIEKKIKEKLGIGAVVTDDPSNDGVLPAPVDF

[4] = target: T4, Replicative DNA helicase DnaB (Mycobacterium tuberculosis, UniProt P9WMR3); assay: DnaB intein splicing inhibitors, dose response, biochemical, cell-free fluorescence (AID 449749); type: functional
T4 sequence (P9WMR3 whole entry): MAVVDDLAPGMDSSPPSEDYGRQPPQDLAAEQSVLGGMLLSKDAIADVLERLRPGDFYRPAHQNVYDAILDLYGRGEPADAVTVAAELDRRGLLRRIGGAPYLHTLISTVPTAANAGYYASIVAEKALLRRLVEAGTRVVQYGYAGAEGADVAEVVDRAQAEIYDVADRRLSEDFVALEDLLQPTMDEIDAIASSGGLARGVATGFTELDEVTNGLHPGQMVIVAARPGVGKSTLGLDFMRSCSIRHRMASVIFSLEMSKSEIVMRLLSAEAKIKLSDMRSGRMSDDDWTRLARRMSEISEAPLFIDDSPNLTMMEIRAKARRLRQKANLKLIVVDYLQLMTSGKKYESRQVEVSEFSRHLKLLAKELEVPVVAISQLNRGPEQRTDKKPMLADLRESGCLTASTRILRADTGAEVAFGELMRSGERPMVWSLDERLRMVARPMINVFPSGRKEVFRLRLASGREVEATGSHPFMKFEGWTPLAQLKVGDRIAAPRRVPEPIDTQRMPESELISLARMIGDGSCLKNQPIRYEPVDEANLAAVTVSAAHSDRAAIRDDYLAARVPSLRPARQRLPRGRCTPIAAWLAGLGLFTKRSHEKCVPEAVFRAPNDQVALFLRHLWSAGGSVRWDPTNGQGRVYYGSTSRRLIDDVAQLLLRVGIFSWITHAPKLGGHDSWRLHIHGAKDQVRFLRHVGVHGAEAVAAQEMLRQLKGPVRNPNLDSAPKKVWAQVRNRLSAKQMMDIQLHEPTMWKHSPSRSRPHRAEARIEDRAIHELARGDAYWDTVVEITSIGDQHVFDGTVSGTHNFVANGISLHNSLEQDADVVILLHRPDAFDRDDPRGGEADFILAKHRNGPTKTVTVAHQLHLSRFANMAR

Protein skinhead-1 = target: T5, Protein skinhead-1 (Caenorhabditis elegans, UniProt P34707); type: functional
T5 sequence (P34707 whole entry): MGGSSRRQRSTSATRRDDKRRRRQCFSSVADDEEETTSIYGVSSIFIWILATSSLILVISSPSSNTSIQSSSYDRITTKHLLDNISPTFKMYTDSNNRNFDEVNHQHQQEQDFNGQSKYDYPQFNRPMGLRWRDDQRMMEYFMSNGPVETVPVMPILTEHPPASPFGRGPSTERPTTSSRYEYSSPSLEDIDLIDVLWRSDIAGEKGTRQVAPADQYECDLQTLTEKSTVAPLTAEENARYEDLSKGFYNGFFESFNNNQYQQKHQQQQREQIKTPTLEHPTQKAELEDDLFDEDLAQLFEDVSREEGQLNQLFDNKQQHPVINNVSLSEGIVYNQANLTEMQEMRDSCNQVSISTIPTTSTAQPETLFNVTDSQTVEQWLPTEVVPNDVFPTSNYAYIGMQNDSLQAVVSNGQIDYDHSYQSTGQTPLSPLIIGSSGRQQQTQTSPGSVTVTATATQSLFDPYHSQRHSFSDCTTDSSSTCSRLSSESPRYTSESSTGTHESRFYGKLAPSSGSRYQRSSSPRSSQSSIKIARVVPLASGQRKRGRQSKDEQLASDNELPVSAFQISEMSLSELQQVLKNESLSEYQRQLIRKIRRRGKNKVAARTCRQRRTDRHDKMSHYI

Row | SMILES | IC50 [2] | IC50 [3] | other results
1 | CCN(CC)CCn1c2ccc(F)cc2c2nc(C)sc21 | – | – | AC50 [1]: 20.9 µM (active)
2 | CC(C)c1nc(N(C)S(C)(=O)=O)nc(-c2ccc(F)cc2)c1/C=C/C(O)CC(O)CC(=O)O (centres undefined) | – | – | AC50 (Cytochrome P450 3A4): 39.8 µM (inconclusive)
3 | OC(CN1CCNCC1)Cn1c2ccc(Br)cc2c2cc(Br)ccc21 (centres undefined) | – | – | AC50 (Cytochrome P450 3A4): 31.6 µM (inconclusive)
4 | COC/C=C/C1=CC2=CC(=O)C(C)(OC(=O)c3cnc4ccccc4n3)C(=O)C2=CN1CCCCO (centres undefined) | 17.6 µM (active) | 6.81 µM (active) | –
5 | Cc1n[nH]c(O)c1C(c1cc(Br)ccc1O)c1c(C)n[nH]c1O | 23 µM (active) | 34 µM (active) | EC50 (Protein RecA): 0.275 µM (active); AC50 [4]: 0.347 µM (active)
6 | CC1(OC(=O)CCc2ccccc2)C(=O)C=C2C=C3CCCN3C=C2C1=O (centres undefined) | 18.1 µM (active) | 12.1 µM (active) | –
7 | COC(=O)CCCC1=CC2=CC(=O)C(C)(OC(=O)c3cccs3)C(=O)C2=CN1CC(C)C (centres undefined) | 11.1 µM (active) | 7.62 µM (active) | IC50 (Protein skinhead-1): > 100 µM (inactive)
